For assay [1], the target named is T1, Bcl-2-like protein 1 (Homo sapiens, UniProt Q07817). Briefly: Fluorescence Polarization (FP) Assay and FL5.12 Cellular Assay. As to conditions: pH 7.4; 25 °C. The protocol: The binding affinities (Ki) of compounds were determined using fluorescence polarization assays (FPA) that measure their ability to competitively displace a Bad-derived peptide from Bcl-xL. […] Compound efficacy (EC50) in a cellular context was evaluated by testing their ability to reverse the protection from cytokine withdrawal afforded by overexpression of Bcl-xL in the IL-3 dependent murine pro-B cell line FL5.12.
T1 sequence (Q07817 whole entry): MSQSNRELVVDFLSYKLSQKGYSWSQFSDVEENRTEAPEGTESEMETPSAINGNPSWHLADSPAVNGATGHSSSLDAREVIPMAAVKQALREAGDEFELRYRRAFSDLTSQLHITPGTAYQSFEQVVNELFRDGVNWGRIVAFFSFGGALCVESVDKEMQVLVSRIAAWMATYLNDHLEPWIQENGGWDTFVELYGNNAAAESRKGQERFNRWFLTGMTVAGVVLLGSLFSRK

For assay [2], the target named is Apoptosis regulator Bcl-2 (Homo sapiens, UniProt P10415). Briefly: Fluorescence Polarization Assay and FL5.12 Cellular Assay. The protocol:
(§1) The binding affinities (Ki) of compounds were determined using fluorescence polarization assays (FPA) that measure their ability to competitively displace a Bad-derived peptide from Bcl-xL. Compound efficacy (EC50) in a cellular context was evaluated by testing their ability to reverse the protection from cytokine withdrawal afforded by overexpression of Bcl-xL in the IL-3 dependent murine pro-B cell line FL5.12.
Background: Polarisation of emitted light reports the rotation of a fluorescent probe.

For assay [3], the target named is T1, Bcl-2-like protein 1. Described as above. The protocol: as §1
A short description of assay [4]: The binding affinities (Ki) of compounds were determined using fluorescence polarization assays (FPA) that measure their ability to competitively displace a Bad-derived peptide from Bcl-xL. Compound efficacy (EC50) in a cellular context was evaluated by testing their ability to reverse the protection from cytokine w.
The nature of assay [5]: The binding affinities (Ki) of compounds were determined using fluorescence polarization assays (FPA) that measure their ability to competitively displace a Bad-derived peptide from Bcl-xL. IC50 values were binding affinities measured in the presence of 10% human serum. Compound efficacy (EC50) in a cellular co. As to conditions: pH 7.4.

Where “and” joins values, the source holds several entries; their conditions need not be identical. Identical values can stand only once.

Apoptosis regulator Bcl-2, sequence (P10415 whole entry): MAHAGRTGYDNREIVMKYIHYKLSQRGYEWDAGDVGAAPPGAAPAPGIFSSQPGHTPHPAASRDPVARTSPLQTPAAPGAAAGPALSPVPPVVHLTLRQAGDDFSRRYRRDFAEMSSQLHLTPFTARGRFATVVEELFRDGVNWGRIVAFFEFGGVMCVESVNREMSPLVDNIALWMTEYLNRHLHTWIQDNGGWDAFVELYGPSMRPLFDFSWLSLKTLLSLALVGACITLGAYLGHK

On to `CCCCC1(OC)CCN(c2ccc(C(=O)NS(=O)(=O)c3ccc(N[C@H](CCN(C)C)CSc4ccccc4)c([N+](=O)[O-])c3)cc2)CC1` [4-(4-butyl-4-methoxypiperidin-1-yl)-N-[(4-{[(2R)-4-(dimethylamino)-1-(phenylsulfanyl)butan-2-yl]amino}-3-nitrobenzene)sulfonyl]benzamide], for which, on Bcl-2-like protein 1 [1], the EC50 – broadly, the midpoint of the concentration-response curve – was 8000 nM; the IC50 – broadly, the concentration at which inhibition is half-maximal – is 312 nM; the Ki – broadly, the equilibrium dissociation constant of an inhibitor or competing ligand from its target – was found to be 1.3 nM. In assay [2], the EC50 was found to be 3000 nM and the Ki stood at 20 nM.

Turning to `CN(C)CC[C@H](CSc1ccccc1)Nc1ccc(S(=O)(=O)NC(=O)c2ccc(N3CCN(Cc4ccccc4-c4ccc(S(C)(=O)=O)cc4)CC3)cc2)cc1[N+](=O)[O-]` [N-[(4-{[(2R)-4-(dimethylamino)-1-(phenylsulfanyl)butan-2-yl]amino}-3-nitrobenzene)sulfonyl]-4-(4-{[2-(4-methanesulfonylphenyl)phenyl]methyl}piperazin-1-yl)benzamide], the Ki at Bcl-2-like protein 1 [3] is 9.1 nM. Moreover, the EC50 in assay [4] is 460 nM and 530 nM.

`COC1(Cc2ccccc2-c2ccccc2)CCN(c2ccc(C(=O)NS(=O)(=O)c3ccc(N[C@H](CCN(C)C)CSc4ccccc4)c([N+](=O)[O-])c3)cc2)CC1` [N-[(4-{[(2R)-4-(dimethylamino)-1-(phenylsulfanyl)butan-2-yl]amino}-3-nitrobenzene)sulfonyl]-4-{4-methoxy-4-[(2-phenylphenyl)methyl]piperidin-1-yl}benzamide]: the EC50 in assay [5] stood at 35 nM; in assay [4], 20 nM.

For `COC1(Cc2ccc(-c3ccccc3)cc2)CCN(c2ccc(C(=O)NS(=O)(=O)c3ccc(N[C@H](CCN(C)C)CSc4ccccc4)c([N+](=O)[O-])c3)cc2)CC1` [N-[(4-{[(2R)-4-(dimethylamino)-1-(phenylsulfanyl)butan-2-yl]amino}-3-nitrobenzene)sulfonyl]-4-{4-methoxy-4-[(4-phenylphenyl)methyl]piperidin-1-yl}benzamide], the EC50 in assay [5] turned out to be 600 nM; in assay [4], 1100 nM.

(Values after BindingDB's records for doi:10.1021/jm061152t (Abbott Laboratories, 2007).)
